Assay results as given in article PMC4548243, “Nuclear Localization of the DNA Repair Scaffold XRCC1: Uncovering the Functional Role of a Bipartite NLS” (Scientific Reports, 2015).
Residues, ends and D or L forms follow the SMILES beside them. *: point of attachment. FITC = O=C1OC2(c3ccc(O)cc3Oc3cc(O)ccc32)c2ccc(NC(=S)*)cc21

Biological target: T1, Impα(70–529)(W184R/W231R) (Mus musculus, UniProt P52293, W184R/W231R)
T1 construct: His tag; made in house; host or cells: E. coli BL21(DE3), pET30
Assay: Fluorescence polarization titration of FITC-labeled XRCC1 NLS peptides with major-site mutant Impα(70–529)(W184R/W231R)
Format: binding, murine
Details: relative to wild-type Impα(70–529)
Procedure: A His-tagged murine Importin α protein with the Importin β binding domain (IBB) deleted, which is identical to Impα(70–529) studied by Fontes et al.[30], was expressed in E. coli. […] The major binding pocket double mutant W184R/W231R was created using a Quikchange site-directed mutagenesis kit (Agilent).
Protein concentrations were determined by the Edelhoch procedure[59].
Apparent peptide dissociation constants were determined based on fluorescence polarization measurements using FITC-labeled peptides. Impα(70–529) was exchanged into FP buffer (20 mM Tris, pH 7.7, 125 mM NaCl, 1 mM EDTA, 2 mM tris(2-carboxyethyl)phosphine, 5% sucrose, 10 mM NaN3). […] 50 μL volumes of the binding reactions were pipetted into wells of a 96-well black flat bottomed plate and fluorescence polarization was read at room temperature with the POLARstar Omega microplate reader (BMG Labtech) using excitation at 485 nm and emission at 520 nm. […] The fluorescence polarization values generated by the experiments are arbitrary, so for easy comparisons among samples, the data were normalized to a 0–100 scale after curve-fitting. […]
Where Ycalc represents the fluorescence polarization value that is generated by the model. […]
The FITC tags were selected in an attempt to minimize possible non-specific interactions of the fluorescein with the Impα(70–529). […] Concentrations of unlabeled peptides were determined by UV absorbance[62].

| SMILES | binding affinity to Impα(70–529)(W184R/W231R), in words |
| --- | --- |
| CC(C)C[C@H](NC(=O)[C@H](CCCCN)NC(=O)[C@H](CCCNC(=N)N)NC(=O)[C@H](CCCCN)NC(=O)CNC(=O)CNC(=S)Nc1ccc2c(c1)C(=O)OC21c2ccc(O)cc2Oc2cc(O)ccc21)C(=O)O [Peptide M1] ({FITC}-GGKRKL-OH; C-terminus assumed) | essentially unaffected |
| CC(C)C[C@H](NC(=O)[C@H](CCCCN)NC(=O)[C@@H]1CCCN1C(=O)[C@H](CCCNC(=N)N)NC(=O)[C@H](CCCCN)NC(=O)[C@@H]1CCCN1C(=O)[C@@H](NC(=O)[C@@H](N)CO)C(C)C)C(=O)N1CCC[C@H]1C(=O)NCC(=O)N[C@@H](CCCCNC(=S)Nc1ccc2c(c1)C(=O)OC21c2ccc(O)cc2Oc2cc(O)ccc21)C(=O)O [Peptide M2] (H-SVPKRPKLPGK(FITC)-OH; N-terminus and C-terminus assumed) | interacts only weakly |
